From patent publication US7902361B2, “Pyrimidin-4-yl-3, 4-thione compounds and their use in therapy” (Cyclacel Limited, priority 2003, dated 2011)

Columns and labels:
Assay type in all cases: biochemical
CDK7/cyclin H = CDK7/cyclin H (Homo sapiens, UniProt P50613); experiment: Kinase assay CDK7/cyclin H; settings: Ki calculated (Cheng-Prusoff) from experimentally determined IC50 and Km,ATP; read-out: Kinase Inhibition Ki CDK7 - cyclin H
Experimental: (§1) The compounds from the examples above were investigated for their ability to inhibit the enzymatic activity of various protein kinases. This was achieved by measurement of incorporation of radioactive phosphate from ATP into appropriate polypeptide substrates. Recombinant protein kinases and kinase complexes were produced or obtained commercially. Assays were performed using 96-well plates and appropriate assay buffers (typically 25 mM β-glycerophosphate, 20 mM MOPS, 5 mM EGTA, 1 mM DTT, 1 mM […], pH 7.4), into which were added 2-4 μg of active enzyme with appropriate substrates. The reactions were initiated by addition of Mg/ATP mix (15 mM MgCl2+100 μM ATP with 30-50 kBq per well of [γ-^32P]-ATP) and mixtures incubated as required at 30° C. Reactions were stopped on ice, followed by filtration through p81 filterplates or GF/C filterplates (Whatman Polyfiltronics, Kent, UK). After washing 3 times with 75 mM aq orthophosphoric acid, plates were dried, scintillant added and incorporated radioactivity measured in a scintillation counter (TopCount, Packard Instruments, Pangbourne, Berks, UK). Compounds for kinase assay were made up as 10 mM stocks in DMSO and diluted into 10% DMSO in assay buffer.

CDK9/cyclin T1 = CDK9/cyclin T1 (Homo sapiens, UniProt P50750); experiment: Kinase assay CDK9/cyclin T1; settings: Ki calculated (Cheng-Prusoff) from experimentally determined IC50 and Km,ATP; read-out: Kinase Inhibition Ki CDK9 - cyclin T1
CDK9/cyclin T1, sequence (P50750 whole entry, species assumed): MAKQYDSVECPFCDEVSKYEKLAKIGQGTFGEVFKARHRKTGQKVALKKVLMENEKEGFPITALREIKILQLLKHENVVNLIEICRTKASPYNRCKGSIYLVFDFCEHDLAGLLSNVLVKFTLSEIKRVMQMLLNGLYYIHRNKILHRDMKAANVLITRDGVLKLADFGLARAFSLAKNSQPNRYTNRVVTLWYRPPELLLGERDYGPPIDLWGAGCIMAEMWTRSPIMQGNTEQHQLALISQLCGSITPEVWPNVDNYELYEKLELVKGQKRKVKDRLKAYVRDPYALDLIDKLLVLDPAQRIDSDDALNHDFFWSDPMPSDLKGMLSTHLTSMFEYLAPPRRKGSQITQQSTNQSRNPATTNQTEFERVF
CDK9/cyclin T1, sequence (O60563 whole entry partner, species assumed): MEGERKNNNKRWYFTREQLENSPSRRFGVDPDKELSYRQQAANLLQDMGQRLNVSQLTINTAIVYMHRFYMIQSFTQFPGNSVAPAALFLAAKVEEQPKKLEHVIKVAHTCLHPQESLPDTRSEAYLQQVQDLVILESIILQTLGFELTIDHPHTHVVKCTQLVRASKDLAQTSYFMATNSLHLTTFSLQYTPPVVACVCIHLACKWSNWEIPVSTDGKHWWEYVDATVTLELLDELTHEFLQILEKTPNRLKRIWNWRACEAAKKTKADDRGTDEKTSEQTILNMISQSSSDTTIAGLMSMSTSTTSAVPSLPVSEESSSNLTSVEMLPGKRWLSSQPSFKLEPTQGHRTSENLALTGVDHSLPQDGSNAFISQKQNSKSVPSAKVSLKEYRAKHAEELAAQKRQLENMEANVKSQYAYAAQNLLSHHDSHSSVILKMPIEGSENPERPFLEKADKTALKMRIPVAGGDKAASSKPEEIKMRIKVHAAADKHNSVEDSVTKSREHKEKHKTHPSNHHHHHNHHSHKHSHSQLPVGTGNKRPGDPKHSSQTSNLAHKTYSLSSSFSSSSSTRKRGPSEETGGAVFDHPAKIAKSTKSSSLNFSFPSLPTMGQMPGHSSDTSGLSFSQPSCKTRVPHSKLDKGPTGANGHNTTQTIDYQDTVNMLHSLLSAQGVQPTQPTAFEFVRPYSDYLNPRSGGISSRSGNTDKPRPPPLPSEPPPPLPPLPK
Experimental: as §1

CDK4/cyclin D1 = CDK4/cyclin D1 (Homo sapiens, UniProt P11802); experiment: Kinase assay CDK4/cyclin D1; settings: Ki calculated (Cheng-Prusoff) from experimentally determined IC50 and Km,ATP; read-out: Kinase Inhibition Ki CDK4 - cyclin D1
CDK4/cyclin D1, sequence (P11802 whole entry, species assumed): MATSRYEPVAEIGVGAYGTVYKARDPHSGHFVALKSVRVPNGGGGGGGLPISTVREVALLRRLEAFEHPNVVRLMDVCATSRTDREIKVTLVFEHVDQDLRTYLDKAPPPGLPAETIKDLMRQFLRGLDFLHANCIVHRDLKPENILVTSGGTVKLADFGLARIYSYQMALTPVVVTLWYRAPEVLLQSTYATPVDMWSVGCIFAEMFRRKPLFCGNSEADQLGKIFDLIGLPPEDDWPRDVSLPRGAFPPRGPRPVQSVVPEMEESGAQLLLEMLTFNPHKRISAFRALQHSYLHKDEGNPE
CDK4/cyclin D1, sequence (P24385 whole entry partner, species assumed): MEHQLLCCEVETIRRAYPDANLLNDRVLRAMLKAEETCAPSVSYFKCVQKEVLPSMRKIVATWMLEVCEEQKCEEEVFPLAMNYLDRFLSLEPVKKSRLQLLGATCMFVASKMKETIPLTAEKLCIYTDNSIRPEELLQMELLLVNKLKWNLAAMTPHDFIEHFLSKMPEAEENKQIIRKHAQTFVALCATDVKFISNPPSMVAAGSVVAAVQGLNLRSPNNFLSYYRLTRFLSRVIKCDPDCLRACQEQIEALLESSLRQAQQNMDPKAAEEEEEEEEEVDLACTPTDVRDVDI
Experimental: as §1

CDK2/cyclin E = CDK2/cyclin E (Homo sapiens, UniProt P24941); experiment: Kinase assay CDK2/cyclin E; settings: Ki calculated (Cheng-Prusoff) from experimentally determined IC50 and Km,ATP; read-out: Kinase Inhibition Ki CDK2 - cyclin E
Experimental: as §1, with “The reactions were initiated by addition of Mg/ATP mix (15 mM MgCl2+100 μM ATP with 30-50 kBq per well of [γ-^32P]-ATP) and mixtures incubated as required at 30° C.” left out

CDK1/cyclin B = CDK1/cyclin B (Homo sapiens, UniProt P06493); experiment: Kinase assay CDK1/cyclin B (radioactive phosphate incorporation); settings: Ki calculated (Cheng-Prusoff) from experimentally determined IC50 and Km,ATP; read-out: Kinase Inhibition Ki CDK1 - cyclin B
CDK1/cyclin B, sequence (P06493 whole entry, species assumed): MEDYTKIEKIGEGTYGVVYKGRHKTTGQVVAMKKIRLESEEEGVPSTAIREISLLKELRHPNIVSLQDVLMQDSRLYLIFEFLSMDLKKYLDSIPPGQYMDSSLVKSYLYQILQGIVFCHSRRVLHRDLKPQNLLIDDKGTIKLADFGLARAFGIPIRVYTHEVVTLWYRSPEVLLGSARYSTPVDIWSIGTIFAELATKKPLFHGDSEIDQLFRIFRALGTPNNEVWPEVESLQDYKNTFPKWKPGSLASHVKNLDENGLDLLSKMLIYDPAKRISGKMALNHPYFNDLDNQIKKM
CDK1/cyclin B, sequence (P14635 whole entry partner, species assumed): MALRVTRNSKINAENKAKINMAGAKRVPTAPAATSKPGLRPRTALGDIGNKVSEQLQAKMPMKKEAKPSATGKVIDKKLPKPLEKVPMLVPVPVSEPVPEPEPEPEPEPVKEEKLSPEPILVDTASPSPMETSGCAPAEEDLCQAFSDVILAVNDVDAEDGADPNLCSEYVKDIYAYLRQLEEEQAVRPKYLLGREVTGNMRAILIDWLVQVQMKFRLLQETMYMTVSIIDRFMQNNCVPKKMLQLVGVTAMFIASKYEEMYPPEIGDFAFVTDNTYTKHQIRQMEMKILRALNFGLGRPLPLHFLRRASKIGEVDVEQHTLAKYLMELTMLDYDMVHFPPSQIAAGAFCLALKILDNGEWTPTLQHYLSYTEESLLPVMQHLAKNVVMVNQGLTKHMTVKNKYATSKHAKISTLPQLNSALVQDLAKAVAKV
Experimental: as §1, with “The reactions were initiated by addition of Mg/ATP mix (15 mM MgCl2+100 μM ATP with 30-50 kBq per well of [γ-^32P]-ATP) and mixtures incubated as required at 30° C.” left out

aurora A = molecular target: T1, aurora A (Homo sapiens, UniProt O14965); experiment: Kinase assay aurora A; settings: Ki calculated (Cheng-Prusoff) from experimentally determined IC50 and Km,ATP; read-out: Kinase Inhibition Ki Aurora A
T1 sequence (O14965 1-403): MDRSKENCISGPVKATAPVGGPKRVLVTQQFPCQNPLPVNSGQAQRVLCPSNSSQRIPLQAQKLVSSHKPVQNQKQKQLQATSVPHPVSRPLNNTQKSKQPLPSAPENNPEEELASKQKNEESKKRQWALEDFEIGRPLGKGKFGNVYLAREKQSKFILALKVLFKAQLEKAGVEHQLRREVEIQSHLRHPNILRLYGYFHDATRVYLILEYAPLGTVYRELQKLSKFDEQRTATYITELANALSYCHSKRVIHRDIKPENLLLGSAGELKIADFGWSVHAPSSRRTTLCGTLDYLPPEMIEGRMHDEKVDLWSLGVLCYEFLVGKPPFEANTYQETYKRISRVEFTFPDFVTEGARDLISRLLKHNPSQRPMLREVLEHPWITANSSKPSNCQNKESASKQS
Experimental: as §1, with “The reactions were initiated by addition of Mg/ATP mix (15 mM MgCl2+100 μM ATP with 30-50 kBq per well of [γ-^32P]-ATP) and mixtures incubated as required at 30° C.” left out

CDK2/cyclin A = CDK2/cyclin A (Homo sapiens, UniProt P24941); experiment: Kinase assay CDK2/cyclin A; settings: Ki calculated (Cheng-Prusoff) from experimentally determined IC50 and Km,ATP; read-out: Kinase Inhibition Ki CDK2 - cyclin A
Experimental: as §1, with “The reactions were initiated by addition of Mg/ATP mix (15 mM MgCl2+100 μM ATP with 30-50 kBq per well of [γ-^32P]-ATP) and mixtures incubated as required at 30° C.” left out

GSK3β = molecular target: T2, GSK3β (Homo sapiens, UniProt P49841); experiment: GSK3β in vitro kinase assay; settings: recombinant human GSK3β, 100 μM ATP
T2 construct: purchased New England Biolabs
T2 sequence (P49841 whole entry): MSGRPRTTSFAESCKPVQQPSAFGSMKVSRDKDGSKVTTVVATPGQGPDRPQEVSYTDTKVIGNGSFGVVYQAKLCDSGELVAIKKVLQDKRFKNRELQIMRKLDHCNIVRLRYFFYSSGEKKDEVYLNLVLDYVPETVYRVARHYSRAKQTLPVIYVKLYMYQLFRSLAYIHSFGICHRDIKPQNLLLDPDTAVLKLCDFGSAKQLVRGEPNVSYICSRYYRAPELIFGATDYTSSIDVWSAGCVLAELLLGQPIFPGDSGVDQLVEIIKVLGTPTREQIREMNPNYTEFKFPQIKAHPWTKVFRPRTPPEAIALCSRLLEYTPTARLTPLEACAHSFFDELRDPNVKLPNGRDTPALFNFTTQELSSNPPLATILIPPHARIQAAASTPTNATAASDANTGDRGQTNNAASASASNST
Experimental: Both isoforms of GSK3 (α and β) are involved in the regulation of glycogen synthase activity—key enzyme in the glycogen metabolism.
A 10-point titration was set up to determine the IC50 values of selected example compounds against GSK3β. Assays were performed using 96-well microtiter plates with a final volume of 25 μL per well. Each assay contained 1.5 units of GSK3β(New England Biolabs), 200 μM CREB phosphopeptide ([…]pSYR, Alta Biosciences), 20 mM Tris HCl pH7.5, 5 mM DTT, 15 mM MgCl2 supplemented with 100 μM ATP and 0.5 μCi of [γ-^32P] ATP plus or minus inhibitor in 2% DMSO. Assays were carried out for 30 minutes at 30° C. before stopping the reaction by the addition of an equal volume of 75 mM aqueous phosphoric acid. Samples were then spotted onto a p81 filterplate (Whatman) and a vacuum was applied. Wells were washed 3 times with 200 μL of dilute aqueous phosphoric acid before the addition of 50 μL Microscint 40 per well. Incorporation of radioactivity was determined on a Topcount microplate scintillation counter (Packard).

CDK7/cyclin H, sequence (P50613 whole entry, species assumed): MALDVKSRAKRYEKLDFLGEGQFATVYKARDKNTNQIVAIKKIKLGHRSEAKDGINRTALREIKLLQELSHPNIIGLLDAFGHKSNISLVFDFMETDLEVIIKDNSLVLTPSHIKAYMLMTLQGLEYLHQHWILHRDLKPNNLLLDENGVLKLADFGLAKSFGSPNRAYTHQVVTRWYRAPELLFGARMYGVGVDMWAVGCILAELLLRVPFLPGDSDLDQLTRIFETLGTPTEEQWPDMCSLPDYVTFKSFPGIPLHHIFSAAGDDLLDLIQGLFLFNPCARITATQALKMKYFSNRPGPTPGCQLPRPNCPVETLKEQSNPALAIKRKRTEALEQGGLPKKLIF
CDK7/cyclin H, sequence (P51946 whole entry partner, species assumed): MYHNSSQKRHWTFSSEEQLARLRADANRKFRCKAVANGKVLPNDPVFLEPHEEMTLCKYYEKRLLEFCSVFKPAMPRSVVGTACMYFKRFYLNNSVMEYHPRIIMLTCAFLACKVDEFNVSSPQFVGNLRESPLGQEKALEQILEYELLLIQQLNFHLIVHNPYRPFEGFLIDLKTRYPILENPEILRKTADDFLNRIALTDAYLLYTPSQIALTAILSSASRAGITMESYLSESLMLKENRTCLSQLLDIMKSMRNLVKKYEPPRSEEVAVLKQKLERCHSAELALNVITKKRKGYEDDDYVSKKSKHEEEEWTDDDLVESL

Ki (CDK7/cyclin H) [nM] | Ki (CDK9/cyclin T1) [nM] | Ki (CDK4/cyclin D1) [nM] | Ki (CDK2/cyclin E) [nM] | Ki (CDK1/cyclin B) [nM] | Ki (aurora A) [nM] | Ki (CDK2/cyclin A) [nM] | IC50 (GSK3β) [nM] | SMILES
2900 | 460 |  |  |  | 2600 |  | 3500 | COc1ccc(C)c(Nc2nccc(-c3sc(=O)n(C)c3C)n2)c1 [Compound 56, 5-[2-(5-Methoxy-2-methyl-phenylamino)-pyrimidin-4-yl]-3,4-dimethyl-3H-thiazol-2-one]
73 |  | 170 |  | 140 | 110 | 280 | 5.3 | Cc1c(-c2ccnc(Nc3cc(N)cc(C(F)(F)F)c3)n2)sc(=O)n1C [Compound 71, 5-[2-(3-Amino-5-trifluoromethyl-phenylamino)-pyrimidin-4-yl]-3,4-dimethyl-3H-thiazol-2-one]
2700 | 50 | 980 | 1400 |  | 870 |  | 75 | Cc1c(-c2ccnc(Nc3cccc(S(=O)(=O)NC(C)C)c3)n2)sc(=O)n1C [Compound 74, 3-[4-(3,4-Dimethyl-2-oxo-2,3-dihydro-thiazol-5-yl)-pyrimidin-2-ylamino]-N-isopropyl-benzenesulfonamide]
 |  |  |  |  | 500 |  | 3.2 | Cc1cc(Nc2nccc(-c3sc(=O)n(C)c3C)n2)cnc1Cl [Compound 81, 5-[2-(6-Chloro-5-methyl-pyridin-3-ylamino)-pyrimidin-4-yl]-3,4-dimethyl-3H-thiazol-2-one]

The next lines start with the compound.

SMILES | Ki (CDK7/cyclin H) [nM] | Ki (CDK9/cyclin T1) [nM] | Ki (CDK4/cyclin D1) [nM] | Ki (CDK2/cyclin E) [nM] | Ki (CDK1/cyclin B) [nM] | Ki (aurora A) [nM] | Ki (CDK2/cyclin A) [nM] | IC50 (GSK3β) [nM]
Cc1c(-c2ccnc(Nc3ccc(N4CCNCC4)c(Cl)c3)n2)sc(=O)n1C [Compound 44, 5-[2-(3-Chloro-4-piperazin-1-yl-phenylamino)-pyrimidin-4-yl]-3,4-dimethyl-3H-thiazol-2-one] | 19 | 3.4 | 36 | 62 | 86 | 38 | 99 | 17.8
CCn1c(C)c(-c2ccnc(Nc3ccc(F)cc3)n2)sc1=O [Compound 45, 3-Ethyl-5-[2-(4-fluoro-phenylamino)-pyrimidin-4-yl]-4-methyl-3H-thiazol-2-one] | 220 | 11 | 5000 | 24 | 300 | 43 | 52 | 15.2
CCn1c(C)c(-c2ccnc(Nc3ccc(Cl)cc3)n2)sc1=O [Compound 46, 5-[2-(4-Chloro-phenylamino)-pyrimidin-4-yl]-3-ethyl-4-methyl-3H-thiazol-2-one] | 790 | 57 |  | 570 |  | 1100 | 400 | 101
COCCNS(=O)(=O)c1ccc(Nc2nccc(-c3sc(=O)n(C)c3C)n2)cc1 [Compound 65, 4-[4-(3,4-Dimethyl-2-oxo-2,3-dihydro-thiazol-5-yl)-pyrimidin-2-ylamino]-N-(2-methoxy-ethyl)-benzenesulfonamide] | 940 | 14 |  |  | 4.1 | 530 |  | 9
Cc1ccc(Nc2nccc(-c3sc(=O)n(C)c3C)n2)cc1S(=O)(=O)N1CCOCC1 [Compound 78, 3,4-Dimethyl-5-{2-[4-methyl-3-(morpholine-4-sulfonyl)-phenylamino]-pyrimidin-4-yl}-3H-thiazol-2-one] | 1200 | 27 |  | 2100 |  | 1100 |  | 130
Cc1c(-c2ccnc(Nc3cccc(S(=O)(=O)N4CCOCC4)c3)n2)sc(=O)n1C [Compound 79, 3,4-Dimethyl-5-{2-[3-(morpholine-4-sulfonyl)-phenylamino]-pyrimidin-4-yl}-3H-thiazol-2-one] | 2600 |  |  | 1500 |  | 1400 |  | 35.6
Cc1c(-c2ccnc(Nc3ccc(CNC(=O)c4ccccn4)cc3)n2)sc(=O)n1C [Compound 82, Pyridine-2-carboxylic acid 4-[4-(3,4-dimethyl-2-oxo-2,3-dihydro-thiazol-5-yl)-pyrimidin-2-ylamino]-benzylamide] |  |  |  |  |  | 63 |  | 28.1
